As usually defined, the IC50 is the point on the concentration scale where inhibition reaches its midpoint.

The target in the experiment is T1, MDR (Rattus norvegicus, UniProt P16257).
T1 construct: Crude mitochondria fractions prepared from rat cerebral cortex were used as a receptor sample; from tissue; host or cells: rat cerebral cortex, crude mitochondria fraction
As to the kind of experiment: MDR receptor binding assay ([3H]PK11195 displacement). The following applies: 50% inhibition of [3H]PK11195 (2 nM) binding; crude mitochondria fraction from rat cerebral cortex; 4° C., 90 minutes. On the procedure: Experiment [MDR Receptor Binding Assay]
Crude mitochondria fractions prepared from rat cerebral cortex were used as a receptor sample, and [^3H]PK11195 was used as a [^3H]-labeled ligand.
A binding assay using the [^3H]-labeled ligand was carried out according to the following method as described in Journal of Pharmacology and Experimental Therapeutics, 262, 971(1992).
Preparation of Receptor Sample: Rat cerebral cortex was homogenized using a Teflon-coated homogenizer in a 10 mM HEPES buffer (pH 7.4) containing 0.32 M sucrose in ten volumes of the wet weight. The homogenate was centrifuged at 900×g for 10 minutes, and the resulting supernatant was centrifuged at 9,000×g for 10 minutes. The precipitate was suspended in a HEPES buffer to give a protein concentration of 1 mg/ml, and centrifuged at 12,000×g for 10 minutes. The resulting precipitate was suspended in a 50 mM HEPES buffer (pH 7.4) to give a crude mitochondria fraction.
MDR Binding Assay: Mitochondria sample (1.0 mg protein/ml), [^3H]PK11195 (2 nM) and the test drug were reacted at 4° C. for 90 minutes. After completion of the reaction, the reaction mixture was filtered with suction through a glass filter (GF/B) treated with 0.3% polyethyleneimine, and the radioactivity on the filter was measured by a liquid scintillation spectrometer.
The binding at the reaction in the presence of 10 μM PK11195 was defined as non-specific binding of [3H]PK11195, and the difference between total binding and non-specific binding was defined as specific binding.
Regarding `COc1ccccc1CN(C(C)=O)c1cc(Cl)ccc1Oc1ccccc1` [Compound 121], the IC50 came out at 2.01 nM.

`COc1ccccc1CN(C(C)=O)c1ccccc1Oc1ccc(Cl)cc1` [Compound 110] returned an IC50 of 8.9 nM.

As for `CC(=O)N(Cc1ccccc1C)c1ccccc1Oc1ccccc1` [Compound 049], the IC50 is 4.23 nM.

Molecule `CC(=O)Oc1ccccc1CN(C(C)=O)c1ccccc1Oc1ccccc1` [Compound 028, N-acetyl-N-(2-acetyloxybenzyl)-2-phenoxyaniline] had an IC50 of 3.2 nM.

The molecule `COc1ccccc1CN(C(C)=O)c1ccccc1Oc1ccccc1C` [Compound 100] registered an IC50 of 0.112 nM.

As for `CC(=O)N(Cc1ccccc1O)c1ccccc1Oc1ccccc1` [Compound 027, N-acetyl-N-(2-hydroxybenzyl)-2-phenoxyaniline], the IC50 came to 3.2 nM.

In turn, `CCCC(=O)N(Cc1ccccc1OC)c1ccccc1Oc1ccccc1` [Compound 071] yielded a 50% inhibitory concentration (IC50) of 1.26 nM.

`COc1ccccc1CN(C(C)=O)c1ccccc1Oc1ccc(C)cc1` [Compound 102] registered an IC50 of 0.123 nM.

Molecule `COc1ccccc1CN(C(=O)C1CC1)c1ccccc1Oc1ccccc1` [Compound 076] came in with an IC50 of 0.955 nM.

`COc1ccccc1CN(C(C)=O)c1ccccc1Oc1cccc(F)c1` [Compound 108] displayed an IC50 of 0.413 nM.

Take `CC(=O)N(Cc1ccccc1F)c1ccccc1Oc1ccccc1` [Compound 032]: the IC50 stood at 6.73 nM.

`CCOc1ccccc1CN(C(=O)NC)c1ccccc1Oc1ccccc1` [Compound 091]: the concentration for half-maximal inhibition (IC50) is 1.83 nM.

In turn, `COc1ccccc1CN(C(C)=O)c1ccc(Cl)cc1Oc1ccccc1` [Compound 120] yielded an IC50 of 0.196 nM.

Take `CC(=O)N(Cc1ccccc1C=O)c1ccccc1Oc1ccccc1` [Compound 046, N-acetyl-N-(2-formylbenzyl)-2-phenoxyaniline]: the concentration for half-maximal inhibition (IC50) turned out to be 0.376 nM.

`CC(=O)N(Cc1ccccc1OC(C)C)c1ccccc1Oc1ccccc1` [Compound 007, N-Acetyl-N-(2-isopropoxybenzyl)-2-phenoxyaniline] returned an IC50 of 0.0977 nM.

In turn, `COc1ccccc1CN(C(=O)C1CCC1)c1ccccc1Oc1ccccc1` [Compound 077] registered a half-inhibitory concentration (IC50) of 5.59 nM.

The molecule `COc1ccc(OC)c(CN(C(C)=O)c2ccc(Cl)cc2Oc2ccccc2)c1` [Compound 022] registered a half-inhibitory concentration (IC50) of 0.179 nM.

As for `CCCOc1ccccc1CN(C(C)=O)c1ccc(Cl)cc1Oc1ccccc1` [Compound 006], the IC50 stood at 0.677 nM.

Turning to `COc1ccccc1N(C(C)=O)c1ccccc1Oc1ccccc1` [Compound 013, N-Acetyl-N-(2-methoxyphenyl)-2-phenoxyaniline], the IC50 amounted to 9.77 nM.

Turning to `CCCCCOc1ccccc1CN(C(=O)NC)c1ccccc1Oc1ccccc1` [Compound 094], the half-inhibitory concentration (IC50) is 0.925 nM.

Consider `COc1cccnc1CN(C(C)=O)c1ccccc1Oc1ccccc1` [Compound 060], for which the concentration for half-maximal inhibition (IC50) is 0.955 nM.

These data come from patent publication US6476056B2, “Heterocycle substituted aryloxyaniline derivatives and their use as MDR ligands” (Taisho Pharmaceutical Co., Ltd., priority 1997, dated 2002).
